Assay results: paper PMC6591251, “Discovery of potent necroptosis inhibitors targeting RIPK1 kinase activity for the treatment of inflammatory disorder and cancer metastasis” (Cell Death & Disease, 2019)

Key:
Experiment in all cases: RBC kinase panel
Assay type in all cases: biochemical
Details in all cases: ATP 10 μM, Data1, Data2
[1] = biological target: T1, MEKK1 (Homo sapiens, UniProt Q13233)
T1 construct: purchased Reaction Biology Corporation
Method in brief: (§1)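 Using 10 μM ATP for every kinase, activity of 369 human kinases was measured in duplicate in the presence of 1 μM test compound.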

[2] = biological target: T2, HPK1/MAP4K1 (Homo sapiens, UniProt Q92918)
T2 construct: purchased Reaction Biology Corporation
Method in brief: as §1

[3] = biological target: T3, RSK2 (Homo sapiens, UniProt P51812)
T3 construct: purchased Reaction Biology Corporation
Method in brief: as §1

[4] = biological target: T4, MAPKAPK3 (Homo sapiens, UniProt Q16644)
T4 construct: purchased Reaction Biology Corporation
Method in brief: as §1

[5] = biological target: T5, CK2a2 (Homo sapiens, UniProt P19784)
T5 construct: purchased Reaction Biology Corporation
Method in brief: as §1

[6] = biological target: T6, ARK5/NUAK1 (Homo sapiens, UniProt O60285)
T6 construct: purchased Reaction Biology Corporation
Method in brief: as §1

[7] = biological target: T7, DYRK3 (Homo sapiens, UniProt O43781)
T7 construct: purchased Reaction Biology Corporation
T7 sequence (O43781 whole entry): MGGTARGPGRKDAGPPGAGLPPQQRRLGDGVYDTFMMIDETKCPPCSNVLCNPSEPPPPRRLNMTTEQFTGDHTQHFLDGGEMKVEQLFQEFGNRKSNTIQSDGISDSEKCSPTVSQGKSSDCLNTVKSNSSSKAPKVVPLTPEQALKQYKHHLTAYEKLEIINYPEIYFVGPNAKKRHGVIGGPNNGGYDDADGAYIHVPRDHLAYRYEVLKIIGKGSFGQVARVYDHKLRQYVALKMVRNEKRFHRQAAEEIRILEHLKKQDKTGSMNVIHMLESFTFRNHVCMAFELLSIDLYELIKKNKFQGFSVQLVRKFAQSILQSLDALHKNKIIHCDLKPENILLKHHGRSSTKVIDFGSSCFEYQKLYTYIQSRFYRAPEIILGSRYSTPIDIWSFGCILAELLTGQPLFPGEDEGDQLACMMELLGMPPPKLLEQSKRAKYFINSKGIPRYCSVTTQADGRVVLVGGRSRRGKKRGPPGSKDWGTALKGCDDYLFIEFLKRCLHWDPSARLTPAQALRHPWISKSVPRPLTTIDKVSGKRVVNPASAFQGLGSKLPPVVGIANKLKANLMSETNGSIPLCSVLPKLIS
Method in brief: as §1

[8] = biological target: T8, FLT4/VEGFR3 (Homo sapiens, UniProt P35916)
T8 construct: purchased Reaction Biology Corporation
Method in brief: as §1

[9] = biological target: T9, PEAK1 (Homo sapiens, UniProt Q9H792)
T9 construct: purchased Reaction Biology Corporation
T9 sequence (Q9H792 whole entry): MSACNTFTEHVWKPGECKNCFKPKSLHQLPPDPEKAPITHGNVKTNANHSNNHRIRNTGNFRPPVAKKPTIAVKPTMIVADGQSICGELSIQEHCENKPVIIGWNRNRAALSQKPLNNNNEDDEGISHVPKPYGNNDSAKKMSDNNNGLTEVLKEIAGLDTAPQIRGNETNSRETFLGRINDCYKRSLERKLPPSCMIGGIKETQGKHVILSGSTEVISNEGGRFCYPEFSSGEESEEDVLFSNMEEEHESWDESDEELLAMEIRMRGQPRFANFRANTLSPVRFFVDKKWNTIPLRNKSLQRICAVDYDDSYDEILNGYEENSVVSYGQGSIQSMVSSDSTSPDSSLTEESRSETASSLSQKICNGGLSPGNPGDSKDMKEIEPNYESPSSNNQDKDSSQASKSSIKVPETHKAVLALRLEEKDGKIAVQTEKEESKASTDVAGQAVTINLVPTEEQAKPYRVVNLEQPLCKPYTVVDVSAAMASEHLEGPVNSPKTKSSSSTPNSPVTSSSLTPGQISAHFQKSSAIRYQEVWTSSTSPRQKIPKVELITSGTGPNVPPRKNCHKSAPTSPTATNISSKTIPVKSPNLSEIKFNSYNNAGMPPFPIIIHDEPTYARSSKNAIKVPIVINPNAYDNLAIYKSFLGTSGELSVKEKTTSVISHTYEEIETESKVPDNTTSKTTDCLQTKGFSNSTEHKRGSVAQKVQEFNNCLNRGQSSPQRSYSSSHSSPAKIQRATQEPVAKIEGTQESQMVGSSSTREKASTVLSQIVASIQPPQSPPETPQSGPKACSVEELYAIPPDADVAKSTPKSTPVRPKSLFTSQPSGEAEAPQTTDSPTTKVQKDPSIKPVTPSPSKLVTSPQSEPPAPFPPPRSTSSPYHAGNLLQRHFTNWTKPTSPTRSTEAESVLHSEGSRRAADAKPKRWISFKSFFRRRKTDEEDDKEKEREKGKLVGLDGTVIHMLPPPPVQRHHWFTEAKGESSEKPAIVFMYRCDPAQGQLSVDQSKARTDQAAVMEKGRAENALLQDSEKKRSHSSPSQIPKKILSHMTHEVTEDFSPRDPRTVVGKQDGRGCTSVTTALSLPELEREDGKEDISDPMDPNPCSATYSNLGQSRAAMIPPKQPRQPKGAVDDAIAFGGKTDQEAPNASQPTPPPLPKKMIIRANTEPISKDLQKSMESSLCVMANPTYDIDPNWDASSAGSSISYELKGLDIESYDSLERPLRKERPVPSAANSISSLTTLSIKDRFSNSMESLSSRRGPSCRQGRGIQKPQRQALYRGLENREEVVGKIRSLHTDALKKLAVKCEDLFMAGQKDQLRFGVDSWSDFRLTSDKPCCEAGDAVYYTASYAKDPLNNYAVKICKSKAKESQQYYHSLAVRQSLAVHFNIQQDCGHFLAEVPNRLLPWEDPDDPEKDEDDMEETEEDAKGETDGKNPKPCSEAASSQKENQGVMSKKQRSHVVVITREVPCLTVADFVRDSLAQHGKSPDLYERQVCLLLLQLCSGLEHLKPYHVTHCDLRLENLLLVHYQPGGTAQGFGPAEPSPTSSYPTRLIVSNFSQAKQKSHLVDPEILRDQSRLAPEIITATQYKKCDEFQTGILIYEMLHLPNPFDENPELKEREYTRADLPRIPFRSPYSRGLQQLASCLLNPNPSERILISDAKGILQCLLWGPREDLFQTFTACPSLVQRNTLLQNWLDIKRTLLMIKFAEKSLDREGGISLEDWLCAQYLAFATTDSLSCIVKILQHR
Method in brief: as §1

[10] = biological target: T10, NEK1 (Homo sapiens, UniProt Q96PY6)
T10 construct: purchased Reaction Biology Corporation
Method in brief: as §1

[11] = biological target: T11, PKD2/PRKD2 (Homo sapiens, UniProt Q9BZL6)
T11 construct: purchased Reaction Biology Corporation
T11 sequence (Q9BZL6 whole entry): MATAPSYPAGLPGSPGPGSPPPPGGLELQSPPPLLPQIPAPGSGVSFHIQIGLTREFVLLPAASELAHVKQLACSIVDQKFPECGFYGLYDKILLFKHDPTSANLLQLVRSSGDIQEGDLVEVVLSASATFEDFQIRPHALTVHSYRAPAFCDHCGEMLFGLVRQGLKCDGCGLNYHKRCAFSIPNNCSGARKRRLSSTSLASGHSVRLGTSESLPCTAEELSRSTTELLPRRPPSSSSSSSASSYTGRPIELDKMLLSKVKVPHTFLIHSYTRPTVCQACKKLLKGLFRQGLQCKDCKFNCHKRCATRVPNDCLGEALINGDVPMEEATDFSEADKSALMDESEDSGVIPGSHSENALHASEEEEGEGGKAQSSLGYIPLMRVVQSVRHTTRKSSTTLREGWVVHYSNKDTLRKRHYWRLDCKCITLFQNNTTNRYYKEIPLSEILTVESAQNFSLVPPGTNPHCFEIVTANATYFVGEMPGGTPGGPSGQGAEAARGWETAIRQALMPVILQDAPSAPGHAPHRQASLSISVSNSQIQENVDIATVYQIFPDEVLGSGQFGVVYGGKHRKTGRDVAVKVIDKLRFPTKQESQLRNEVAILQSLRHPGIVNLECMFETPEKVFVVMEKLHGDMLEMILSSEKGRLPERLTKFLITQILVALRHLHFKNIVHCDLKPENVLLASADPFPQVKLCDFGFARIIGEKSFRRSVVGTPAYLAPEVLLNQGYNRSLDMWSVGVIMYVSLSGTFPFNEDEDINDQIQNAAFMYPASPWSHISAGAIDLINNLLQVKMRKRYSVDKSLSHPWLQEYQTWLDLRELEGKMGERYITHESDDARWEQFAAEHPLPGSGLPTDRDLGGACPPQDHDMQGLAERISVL
Method in brief: as §1

[12] = biological target: T12, CDK6/cyclin D3 (Homo sapiens, UniProt Q00534)
T12 construct: purchased Reaction Biology Corporation
Method in brief: as §1

[13] = biological target: T13, RSK4 (Homo sapiens, UniProt Q9UK32)
T13 construct: purchased Reaction Biology Corporation
Method in brief: as §1

[14] = biological target: T14, IR (Homo sapiens, UniProt P06213)
T14 construct: purchased Reaction Biology Corporation
Method in brief: as §1

[15] = biological target: T15, TSSK3/STK22C (Homo sapiens, UniProt Q96PN8)
T15 construct: purchased Reaction Biology Corporation
Method in brief: as §1

[16] = biological target: T16, NEK2 (Homo sapiens, UniProt P51955)
T16 construct: purchased Reaction Biology Corporation
Method in brief: as §1

[17] = biological target: T17, TYK1/LTK (Homo sapiens, UniProt P29376)
T17 construct: purchased Reaction Biology Corporation
Method in brief: as §1

[18] = biological target: T18, WNK2 (Homo sapiens, UniProt Q9Y3S1)
T18 construct: purchased Reaction Biology Corporation
Method in brief: as §1

[19] = biological target: T19, CAMK2g (Homo sapiens, UniProt Q13555)
T19 construct: purchased Reaction Biology Corporation
T19 sequence (Q13555 whole entry): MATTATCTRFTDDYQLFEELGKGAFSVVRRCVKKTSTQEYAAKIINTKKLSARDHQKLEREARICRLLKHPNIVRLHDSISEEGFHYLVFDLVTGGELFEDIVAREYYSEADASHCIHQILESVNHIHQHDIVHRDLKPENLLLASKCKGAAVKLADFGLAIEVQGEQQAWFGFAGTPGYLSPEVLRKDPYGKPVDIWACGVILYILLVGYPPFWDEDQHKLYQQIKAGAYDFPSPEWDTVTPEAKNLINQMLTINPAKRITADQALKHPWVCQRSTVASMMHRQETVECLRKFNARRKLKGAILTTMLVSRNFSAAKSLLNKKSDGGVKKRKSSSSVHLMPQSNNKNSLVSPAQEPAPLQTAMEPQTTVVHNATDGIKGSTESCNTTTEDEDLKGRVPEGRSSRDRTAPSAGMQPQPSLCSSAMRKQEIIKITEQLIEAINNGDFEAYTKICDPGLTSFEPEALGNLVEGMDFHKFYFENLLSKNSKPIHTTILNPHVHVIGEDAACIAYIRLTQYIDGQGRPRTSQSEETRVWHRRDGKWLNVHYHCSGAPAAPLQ
Method in brief: as §1

[20] = biological target: T20, MRCKb/CDC42BPB (Homo sapiens, UniProt Q9Y5S2)
T20 construct: purchased Reaction Biology Corporation
Method in brief: as §1

[21] = biological target: T21, JNK1 (Homo sapiens, UniProt P45983)
T21 construct: purchased Reaction Biology Corporation
Method in brief: as §1

[22] = biological target: T22, IRAK4 (Homo sapiens, UniProt Q9NWZ3)
T22 construct: purchased Reaction Biology Corporation
T22 sequence (Q9NWZ3 whole entry): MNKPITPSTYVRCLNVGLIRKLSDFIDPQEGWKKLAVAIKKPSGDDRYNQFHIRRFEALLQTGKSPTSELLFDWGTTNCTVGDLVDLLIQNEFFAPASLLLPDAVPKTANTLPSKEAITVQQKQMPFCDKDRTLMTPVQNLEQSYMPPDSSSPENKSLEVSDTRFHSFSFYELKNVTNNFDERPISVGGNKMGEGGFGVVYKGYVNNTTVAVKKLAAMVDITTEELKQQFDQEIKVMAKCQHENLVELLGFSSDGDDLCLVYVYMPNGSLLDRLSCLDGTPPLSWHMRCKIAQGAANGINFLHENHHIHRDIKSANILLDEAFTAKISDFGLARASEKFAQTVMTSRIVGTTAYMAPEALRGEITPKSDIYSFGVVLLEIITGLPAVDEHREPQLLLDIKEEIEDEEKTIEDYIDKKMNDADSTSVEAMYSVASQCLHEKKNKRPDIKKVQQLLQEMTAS
Method in brief: as §1

[23] = biological target: T23, CHK2 (Homo sapiens, UniProt O96017)
T23 construct: purchased Reaction Biology Corporation
Method in brief: as §1

[24] = biological target: T24, CK1a1 (Homo sapiens, UniProt P48729)
T24 construct: purchased Reaction Biology Corporation
T24 sequence (P48729 whole entry): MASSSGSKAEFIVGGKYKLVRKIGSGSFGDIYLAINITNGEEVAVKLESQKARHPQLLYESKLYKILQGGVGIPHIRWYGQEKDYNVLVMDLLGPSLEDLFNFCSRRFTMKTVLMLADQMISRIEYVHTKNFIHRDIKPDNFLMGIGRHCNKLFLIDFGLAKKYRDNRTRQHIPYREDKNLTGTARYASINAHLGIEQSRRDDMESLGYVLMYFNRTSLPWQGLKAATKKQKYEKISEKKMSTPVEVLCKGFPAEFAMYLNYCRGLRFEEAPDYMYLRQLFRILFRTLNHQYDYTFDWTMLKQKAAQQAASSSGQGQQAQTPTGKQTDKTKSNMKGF
Method in brief: as §1

[25] = biological target: T25, MEK2 (Homo sapiens, UniProt P36507)
T25 construct: purchased Reaction Biology Corporation
Method in brief: as §1

[26] = biological target: T26, DRAK1/STK17A (Homo sapiens, UniProt Q9UEE5)
T26 construct: purchased Reaction Biology Corporation
T26 sequence (Q9UEE5 whole entry): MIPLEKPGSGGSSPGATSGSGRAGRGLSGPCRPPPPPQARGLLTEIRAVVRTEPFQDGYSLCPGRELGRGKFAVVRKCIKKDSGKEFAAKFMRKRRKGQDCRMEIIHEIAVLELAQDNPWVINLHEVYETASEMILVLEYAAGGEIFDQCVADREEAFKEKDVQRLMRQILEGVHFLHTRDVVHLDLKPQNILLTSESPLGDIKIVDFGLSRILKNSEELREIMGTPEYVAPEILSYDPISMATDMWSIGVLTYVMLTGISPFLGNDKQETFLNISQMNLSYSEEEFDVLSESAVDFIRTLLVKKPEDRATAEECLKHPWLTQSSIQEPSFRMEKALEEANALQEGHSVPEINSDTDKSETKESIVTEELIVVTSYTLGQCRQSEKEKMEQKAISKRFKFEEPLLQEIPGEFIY
Method in brief: as §1

[27] = biological target: T27, FER (Homo sapiens, UniProt P16591)
T27 construct: purchased Reaction Biology Corporation
Method in brief: as §1

[28] = biological target: T28, SGK3/SGKL (Homo sapiens, UniProt Q96BR1)
T28 construct: purchased Reaction Biology Corporation
Method in brief: as §1

[29] = biological target: T29, DYRK1/DYRK1A (Homo sapiens, UniProt Q13627)
T29 construct: purchased Reaction Biology Corporation
Method in brief: as §1

[30] = biological target: T30, PKA (Homo sapiens, UniProt P17612)
T30 construct: purchased Reaction Biology Corporation
Method in brief: as §1

[31] = biological target: T31, PKCb1 (Homo sapiens, UniProt P05771)
T31 construct: purchased Reaction Biology Corporation
Method in brief: as §1

[32] = biological target: T32, CTK/MATK (Homo sapiens, UniProt P42679)
T32 construct: purchased Reaction Biology Corporation
Method in brief: as §1

[33] = biological target: T33, MKK6 (Homo sapiens, UniProt P52564)
T33 construct: purchased Reaction Biology Corporation
Method in brief: as §1

SMILES: CC(=O)Nc1nc2ccc(-c3cnc(C)c(NC(=O)OC4CCCCC4)c3)cc2s1 [PK68, cyclohexyl (5-(2-acetamidobenzo[d]thiazol-6-yl)-2-methylpyridin-3-yl)carbamate]
- Activity% ([1]; 1 μM): 92.88%
- activity at 1 µM [1]: 95.3%
- Activity% ([2]; 1 μM): 98.32%
- activity at 1 µM [2]: 101%
- Activity% ([3]; 1 μM): 90.87%
- activity at 1 µM [3]: 92.3%
- Activity% ([4]; 1 μM): 100.67%
- activity at 1 µM [4]: 102%
- Activity% ([5]; 1 μM): 100.37%
- activity at 1 µM [5]: 101%
- Activity% ([6]; 1 μM): 98.37%
- activity at 1 µM [6]: 99.4%
- Activity% ([7]; 1 μM): 81.73%
- activity at 1 µM [7]: 83%
- Activity% ([8]; 1 μM): 90.37%
- activity at 1 µM [8]: 91%
- Activity% ([9]; 1 μM): 100.13%
- activity at 1 µM [9]: 103%
- Activity% ([10]; 1 μM): 95.75%
- activity at 1 µM [10]: 96%
- Activity% ([11]; 1 μM): 90.63%
- activity at 1 µM [11]: 93.9%
- Activity% ([12]; 1 μM): 81.98%
- activity at 1 µM [12]: 82.6%
- Activity% ([13]; 1 μM): 103.68%
- activity at 1 µM [13]: 105%
- Activity% ([14]; 1 μM): 81.00%
- activity at 1 µM [14]: 81.6%
- Activity% ([15]; 1 μM): 103.77%
- activity at 1 µM [15]: 104%
- Activity% ([16]; 1 μM): 112.29%
- activity at 1 µM [16]: 115%
- Activity% ([17]; 1 μM): 98.39%
- activity at 1 µM [17]: 99.8%
- Activity% ([18]; 1 μM): 94.21%
- activity at 1 µM [18]: 94.6%
- Activity% ([19]; 1 μM): 105.45%
- activity at 1 µM [19]: 107%
- Activity% ([20]; 1 μM): 101.65%
- activity at 1 µM [20]: 104%
- Activity% ([21]; 1 μM): 97.06%
- activity at 1 µM [21]: 98.7%
- Activity% ([22]; 1 μM): 85.85%
- activity at 1 µM [22]: 86.9%
- Activity% ([23]; 1 μM): 98.81%
- activity at 1 µM [23]: 99.1%
- Activity% ([24]; 1 μM): 94.49%
- activity at 1 µM [24]: 97%
- Activity% ([25]; 1 μM): 97.14%
- activity at 1 µM [25]: 97.2%
- Activity% ([26]; 1 μM): 90.72%
- activity at 1 µM [26]: 91.3%
- Activity% ([27]; 1 μM): 100.70%
- activity at 1 µM [27]: 102%
- Activity% ([28]; 1 μM): 99.59%
- activity at 1 µM [28]: 102%
- Activity% ([29]; 1 μM): 95.93%
- activity at 1 µM [29]: 97.4%
- Activity% ([30]; 1 μM): 105.35%
- activity at 1 µM [30]: 105%
- Activity% ([31]; 1 μM): 84.55%
- activity at 1 µM [31]: 84.8%
- Activity% ([32]; 1 μM): 93.51%
- activity at 1 µM [32]: 93.8%
- Activity% ([33]; 1 μM): 107.08%
- activity at 1 µM [33]: 109%
